Experimental data taken from publication PMC11945236 (Molecules, 2025).

Columns and labels:
SARS-CoV-2 M^pro = SARS-CoV-2 M^pro (Severe acute respiratory syndrome coronavirus 2, UniProt P0DTD1); experiment: biochemical; details: for inhibition at 10 µM: read-out: Enzymatic Inhibition Rate (%), primary screening, 10 μM, incubation for 5 min
[1] = experimental value; cited from earlier work
[2] = MTT cytotoxicity assay, Vero E6 cells; format: cell-based; details: African green monkey
Protocol: (§1) The human HFF-1 and monkey Vero E6 cells were provided by Cell Bank in Shanghai, Chinese Academy of Sciences. HFF-1 cells were cultured in DMEM complete medium containing 15% FBS, 100 U/mL penicillin, and 100 μg/mL of streptomycin, while Vero E6 cells were maintained in DMEM complete medium containing 10% FBS. They were maintained at 37 °C in a humidified atmosphere with 5% CO2 (V/V).
(§2) The in vitro cytotoxicity of compounds was determined by the standard MTT assay according to our reported procedure. Briefly, well-cultured cells were seeded in 96-well plates at a density of 5 × 10^3 cells per well. After being cultured overnight in a 37 °C humidified incubator (5% CO2, V/V), cells were incubated with tested compounds for 48 h. Then, cells in each well were treated with MTT in PBS (5 mg/mL) for 4 h at 37 °C, and formazan crystals in viable cells were dissolved by dimethyl sulfoxide (150 μL) at ambient temperature. The absorbance of solubilized formazan was measured by the Synergy multimode reader (BioTek, Winooski, VT, American) at the wavelength of 490 nm.

[3] = tested on: SARS-CoV-2 N proteins in Vero E6 cells; experiment: Immunofluorescence assay for viral N proteins in infected Vero E6 cells; format: cell-based; details: 10 μM, 48 h
Protocol: Human Vero E6 cells were infected by live SARS-CoV-2 at an MOI value of 0.01. […] Then, cells in each group were collected and the immunofluorescence assay was used to detect the expression of viral N protein, and the result was analyzed by high-content screening.

adenovirus = details: concentrations from 0.0156 μM to 1 μM; cited from earlier work
[4] = MTT cytotoxicity assay, HFF-1 cells; format: cell-based; details: human
Protocol: as §1, §2

Structure (SMILES): COc1cc([C@H](CC=C(C)C)OCCC(C)C)c(OC)c2c1/C(=N/O)C=C/C2=N\O [Compound 15, (1E,4E)-6-((S)-1-(Isopentyloxy)-4-methylpent-3-en-1-yl)-5,8-dimethoxy Naphthalene-1,4-dione Dioxime]
- IC50 (SARS-CoV-2 M^pro): 12.5 ± 3.59 µM

Structure (SMILES): COc1cc(C(CC=C(C)C)OC(=O)C=Cc2ccccc2)c(OC)c2c1/C(=N/O)C=C/C2=N\O (stereo not shown) [Compound 12, 1-((5E,8E)-5,8-bis(Hydroxyimino)-1,4-dimethoxy-5,8-dihydronaphthalen-2-yl)-4-methylpent-3-en-1-yl Cinnamate]
- inhibition at 10 µM (SARS-CoV-2 M^pro): 28%

Structure (SMILES): COc1cc(C(CC=C(C)C)OCCC(C)C)c(OC)c2c1/C(=N/O)C=C/C2=N\O (stereo not shown) [Compound 5, (1E,4E)-6-(1-(Isopentyloxy)-4-methylpent-3-en-1-yl)-5,8-dimethoxynaphthal-ene-1,4-dione Dioxime]
- inhibition at 10 µM (SARS-CoV-2 M^pro): ~36%

Structure (SMILES): COc1cc(C(CC=C(C)C)OCCCCCCCCO)c(OC)c2c1/C(=N/O)C=C/C2=N\O (stereo not shown) [Compound 10, (1E,4E)-6-(1-((8-Hydroxyoctyl)oxy)-4-methylpent-3-en-1-yl)-5,8-dimethoxy Naphthalene-1,4-dione Dioxime]
- inhibition at 10 µM (SARS-CoV-2 M^pro): 11.3%

Structure (SMILES): COc1cc(C(CC=C(C)C)OCCC(C)C)c(OC)c2c1C(=O)C=CC2=O (stereo not shown) [Compound 4, 6-(1-(Isopentyloxy)-4-methylpent-3-en-1-yl)-5,8-dimethoxy Naphthalene-1,4-dione]
- inhibition at 10 µM (SARS-CoV-2 M^pro): 10.6%

Structure (SMILES): COc1cc(C(CC=C(C)C)OCCCCC(C)O)c(OC)c2c1/C(=N/O)C=C/C2=N\O (stereo not shown) [Compound 9, (1E,4E)-6-(1-((5-Hydroxyhexyl)oxy)-4-methylpent-3-en-1-yl)-5,8-dimethoxy Naphthalene-1,4-dione Dioxime]
- inhibition at 10 µM (SARS-CoV-2 M^pro): 10.7%

Structure (SMILES): COc1cc([C@@H](CC=C(C)C)OCCC(C)C)c(OC)c2c1/C(=N/O)C=C/C2=N\O [Compound 14, (1E,4E)-6-((R)-1-(Isopentyloxy)-4-methylpent-3-en-1-yl)-5,8-dimethoxy Naphthalene-1,4-dione Dioxime]
- IC50 (SARS-CoV-2 M^pro): 22.8 ± 4.61 µM

Structure (SMILES): COc1cc(C(CC=C(C)C)OCCC(C)C)c(OC)c2c1/C(=N/OC(=O)c1ccccc1)C=C/C2=N\OC(=O)c1ccccc1 (stereo not shown) [Compound 6, (1E,4E)-6-(1-(Isopentyloxy)-4-methylpent-3-en-1-yl)-5,8-dimethoxynaphthalene-1,4-dione O,O-Dibenzoyl Dioxime]
- Enzymatic Inhibition Rate (%) (SARS-CoV-2 M^pro; primary screening, 10 μM, incubation for 5 min): complete loss of activity
- inhibition at 10 µM (SARS-CoV-2 M^pro): -6.9%

Structure (SMILES): CC(C)=CC[C@@H](O)C1=CC(=O)c2c(O)ccc(O)c2C1=O [Shikonin]
- LogP [1]: 1.08
- CC50 at 48 h [2]: 1.48 ± 0.06 µM
- blue fluorescence (DAPI) from the live cell nucleus [3]: almost invisible
- expression of viral N proteins versus untreated cells ([3]; MOI 0.01): significantly decreased expression of viral N proteins
- inhibitory effects against adenovirus (adenovirus): showed inhibitory effects against adenovirus
- CC50 at 48 h [4]: 1.31 ± 0.09 µM
- inhibition at 10 µM (SARS-CoV-2 M^pro): 51.4%
